What was measured:
D4 receptor = biological target: T1, D4 receptor (Homo sapiens, UniProt P21917); assay: D4 receptor binding, [3H]-YM 09151-2 displacement; settings: CHO cell membranes, read-out: K1 (nM) for D4 (CHO cell membranes)
T1 construct: expressed in transfected cells; host or cells: CHO cells
T1 sequence (P21917 1-419): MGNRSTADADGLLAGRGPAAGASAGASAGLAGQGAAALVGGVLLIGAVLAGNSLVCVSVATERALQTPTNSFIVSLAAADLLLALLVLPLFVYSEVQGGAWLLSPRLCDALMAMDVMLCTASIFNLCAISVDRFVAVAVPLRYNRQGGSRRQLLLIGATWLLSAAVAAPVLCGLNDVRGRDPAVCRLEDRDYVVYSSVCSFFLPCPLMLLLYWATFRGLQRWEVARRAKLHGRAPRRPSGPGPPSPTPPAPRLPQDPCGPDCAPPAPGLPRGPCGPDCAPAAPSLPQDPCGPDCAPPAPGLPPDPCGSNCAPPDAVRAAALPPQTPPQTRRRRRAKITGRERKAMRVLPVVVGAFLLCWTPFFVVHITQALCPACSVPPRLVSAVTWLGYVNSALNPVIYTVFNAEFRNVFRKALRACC
Method: Cells were grown in monolayer at 37° C. in 95% air/5% CO2 in Dulbecco's Modified Eagle Medium (DMEM) supplemented with 7.5% (v/v) heat-inactivated fetal bovine serum (FBS), 2.5% (v/v) heat-inactivated horse serum donor herd, 2% of a stock solution containing 5000 I.U./ml penicillin and 5000 μg/ml streptomycin, 1% (v/v) of a solution MEM containing non-essential amino acid, 2 mM glutamine ind 200 μg/ml geneticin. Cells were passaged twice a week using a trypsin/EDTA solution and the split rate was 1:4. Cells were not subcultured more than 17 times.
Preparation of cell membranes:
The cells grown to confluence were washed twice with Dulbecco's PBS buffer and were detached adding VERSENE (PBS containing 0.2 g/l EDTA) for 10 minutes at 37° C. The cell suspension was centrifuged at 1,000 rpm for 10 minutes and the pellet was harvested in DMEM with 10% DMSO and stored at -80° C. Before use, cells were thawed, centrifuged at 1,000 rpm for 10 minutes and the pellet was resuspended in PBS. The cells were centrifuged again at 270×g for 10 minutes at 4° C. and the pellet was resuspended in a lysis buffer (10 mM Tris-HCl pH 7.4, 5 mM Na2 EDTA and protease inhibitors) and incubated for 30 minutes on ice. Cells were homogenized with an Ultra Turrax homogenizer. Unbroken cells and nuclei were removed by an initial centrifugation at 270×g for 10 minutes at 4° C. and crude membranes were collected from the supernatant by a 60 minute spin at 130,000×g. The pelleted membranes were resuspended in the same lysis buffer with 20 strokes by a Potter homogenizer. The final cell membrane suspension, corresponding to about 1×10^7 original cells/ml, was aliquoted and immediately frozen at -80° C.
D4 receptor binding studies were carried out in membranes from CHO cells prepared as above. The membranes were dilute in incubation buffer (50 ml/ TRIS-HCl pH 7.4, 5 mM MgCl2·6H2 O, 5 mM KCl, 1.5 mM CaCl2·2H2 O, 5 mM EDTA) according to their receptor density.
Displacement experiment were performed in 1000 μl total volume incubating the membranes (980 μl) in the presence of [^3 H]-YM 09151-2 (10 μl; 0.15-0.25 nM) and different concentrations of the test compounds dissolved in DMISO (10 μl) at 27° C. for two hours. Nonspecific binding was determined in the presence of 10 μM of Clozapine (10 μl). The reaction was stopped by rapid filtration through Inotech IH 201 filters (pre-soaked in 0.1% polyethyleneimine) using an Inotech Cell Harvester. The radioactivity was counted by liquid scintillation spectrometry.
(§1) The affinity values (Ki) for the compounds were obtained by a nonlinear least squares regression analysis on the basis of a one binding site model. The values were corrected on the basis of the radioligand occupancy on the receptors according to the equation: Ki =IC50 /(1+[C]/Kd), where [C] and Kd represent the concentration and the dissociation constant of the used radioligands ([^3 H]-8-OH-DPAT for the 5-HT1A binding, [^3 H]-Ketanserine for the 5-HT2A binding and [^3 H]-YM 09151-2) for the D4 binding, respectively).

5-HT1A receptor = biological target: T2, 5-HT1A receptor (Rattus norvegicus, UniProt P19327); assay: 5-HT1A receptor binding, [3H]-8-OH-DPAT displacement; settings: rat hippocampus tissue, read-out: K1 (nM) for 5-HT1A (rat hippocampus tissue)
T2 construct: from tissue; host or cells: rat hippocampus (male Sprague-Dawley)
T2 sequence (P19327 1-422): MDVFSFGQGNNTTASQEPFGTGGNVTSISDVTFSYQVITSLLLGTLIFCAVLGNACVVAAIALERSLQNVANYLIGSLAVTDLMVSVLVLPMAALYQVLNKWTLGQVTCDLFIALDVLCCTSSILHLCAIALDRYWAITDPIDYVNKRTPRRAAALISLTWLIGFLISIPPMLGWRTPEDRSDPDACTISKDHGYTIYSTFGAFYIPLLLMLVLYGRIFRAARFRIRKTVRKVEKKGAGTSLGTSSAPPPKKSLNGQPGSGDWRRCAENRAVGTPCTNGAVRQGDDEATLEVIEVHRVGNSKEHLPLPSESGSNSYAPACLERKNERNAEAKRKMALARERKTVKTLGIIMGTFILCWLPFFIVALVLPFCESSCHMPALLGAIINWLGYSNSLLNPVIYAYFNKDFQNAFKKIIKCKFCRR
Method: Male Sprague-Dawley rats (200-250 g) were used. The hippocampus taken from these animals was homogenized in 10 volumes of ice cold 50 mM TIUS buffer (pH 7.4). The homogenate was diluted 1:400 (w:v) in the same buffer to have a final protein concentration of about 200 μg/ml, filtered and incubated at 37° C. for 10 minutes before use.
Displacement experiments were performed by incubating the homogenate (980 μl) in the presence of [^3 H]-8-OH-DPAT (10 μl; 1.0-1.2 nM) and different concentrations of the test compounds dissolved in DMSO (10 μl), at 30° C. for 15 minutes (final volume: 1 ml). Nonspecific binding was determined in the presence of 10 μM 5-HT (10 μl). The reaction was stopped by rapid filtration through Inotech IH 201 filters using an Inotech Cell Harvester. The radioactivity was counted by liquid scintillation spectrometry.
as §1

5-HT2A receptor = biological target: T3, 5-HT2A receptor (Rattus norvegicus, UniProt P14842); assay: 5-HT2A receptor binding, [3H]-Ketanserine displacement; settings: rat cortex tissue, read-out: K1 (nM) for 5-HT2A (Rat cortex tissue)
T3 construct: Cerebral cortex was homogenized in 10 volumes of ice cold 0.32 M sucrose; from tissue; host or cells: rat cerebral cortex (male Sprague-Dawley)
T3 sequence (P14842 whole entry): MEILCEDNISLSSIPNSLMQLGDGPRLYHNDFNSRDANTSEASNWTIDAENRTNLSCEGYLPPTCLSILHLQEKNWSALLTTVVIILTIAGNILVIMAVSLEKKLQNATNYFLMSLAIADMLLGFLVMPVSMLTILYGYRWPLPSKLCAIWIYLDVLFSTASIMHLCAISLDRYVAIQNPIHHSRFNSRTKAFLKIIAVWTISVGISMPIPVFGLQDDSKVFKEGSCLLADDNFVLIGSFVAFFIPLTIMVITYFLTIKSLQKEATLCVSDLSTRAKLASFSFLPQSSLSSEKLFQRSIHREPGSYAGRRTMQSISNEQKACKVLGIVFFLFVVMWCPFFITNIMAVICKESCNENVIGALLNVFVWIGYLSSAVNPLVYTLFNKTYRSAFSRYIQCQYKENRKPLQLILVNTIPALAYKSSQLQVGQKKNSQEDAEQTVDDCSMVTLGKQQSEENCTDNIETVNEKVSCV
Method: Male Sprague-Dawley rats (200-250 g) were used. Cerebral cortex was homogenized in 10 volumes of ice cold 0.32 M sucrose. After the centrifugation of the homogenate (1,000×g for 10 minutes) the supernatant was then recentrifuged at 48,000×g for 15 minutes. The resulting pellet was suspended in 10 volumes of 50 mM TRIS buffer (pH 7.4), incubated at 37° C. for 10 minutes and recentrifuged at 48,000 × g for 15 minutes. The residue was then resuspended in 10 volumes of 50 mM TRIS buffer (pH 7.4).
The tissue was diluted 1:100 (w:v) in 50 mM TRIS buffer (pH 7.4) to have a final concentration of about 200 μg/ml. Displacement experiments were performed by incubating the homogenate (980 μl) in the presence of [^3 H]-Ketanserine (10 μl; 0.5-0.6 nM) and different concentrations of the test compounds dissolved in DMSO (10 μl) at 37° C. for 10 minutes (final volume: 1 ml). Nonspecific binding was determined in the presence of 100 μM Methysergide (10 μl). The reaction was stopped by rapid filtration through Inotech IH 201 filters using an Inotech Cell Harvester. The radioactivity was counted by liquid scintillation spectrometry.
as §1

SMILES | Ki (D4 receptor) [nM] | Ki (5-HT1A receptor) [nM] | Ki (5-HT2A receptor) [nM]
O=c1[nH]c2cc(O)ccc2n1CCN1CCN(c2cccc(C(F)(F)F)c2)CC1 [Compound 1, 5-Hydroxy-1-{2-[4-(3-trifluoromethylphenyl)piperazin-1-yl]ethyl}-1,3-dihydro-benzimidazol-2-one] | 287 | 40.8 | 58.5
O=c1[nH]c2ccc(O)cc2n1CCN1CCN(c2cccc(C(F)(F)F)c2)CC1 [Compound 2, 6-Hydroxy-1-{2-[4-(3-trifluoromethylphenyl)piperazin-1-yl]ethyl}-1,3-dihydro-benzimidazol-2-one] | 804 | 333 | 33.8
O=c1[nH]c2c(O)cccc2n1CCN1CCN(c2cccc(C(F)(F)F)c2)CC1 [Compound 3, 4-Hydroxy-1-{2-[4-(3-trifluoromethylphenyl)piperazin-1-yl]ethyl}-1,3-dihydro-benzimidazol-2-one] | 33.9 | 15.4 | 43.8
O=c1[nH]c2cccc(O)c2n1CCN1CCN(c2cccc(C(F)(F)F)c2)CC1 [Compound 4, 7-Hydroxy-1-{2-[4-(3-trifluoromethylphenyl)piperazin-1-yl]ethyl}-1,3-dihydro-benzimidazol-2-one] | 652 | 1590 | 23.8
O=c1[nH]c2ccccc2n1CCN1CCN(c2ccc(O)c(C(F)(F)F)c2)CC1 [Compound 5, 1-{2-[4-(4-Hydroxy-3-trifluoromethylphenyl)piperazin-1-yl]ethyl}-1,3-dihydro-benzimidazol-2-one] | 17.8 | 369 | 705
O=c1[nH]c2ccccc2n1CCN1CCN(c2cc(O)cc(C(F)(F)F)c2)CC1 [Compound 6, 1-{2-[4-(3-Hydroxy-5-trifluoromethylphenyl)piperazin-1-yl]ethyl}-1,3-dihydro-benzimidazol-2-one] | 24.8 | 156 | 328
O=c1[nH]c2ccccc2n1CCN1CCN(c2cc(C(F)(F)F)ccc2O)CC1 [Compound 7, 1-{2-[4-(2-Hydroxy-5-trifluoromethylphenyl)piperazin-1-yl]ethyl}-1,3-dihydro-benzimidazol-2-one] |  | > 10000 | 4440
